Assay results as given in PubChem BioAssay (NCI).
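Cultured in 96-well plates, cells were exposed to test compound for 48 hours across five concentrations. GI50 marks 50% less growth. TGI is the concentration that stops growth completely.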

Experiments:
Assay in all cases: growth of human tumour cells (NCI), 48 h
SK-MEL-28 melanoma = tested on: SK-MEL-28 melanoma
SK-MEL-5 melanoma = tested on: SK-MEL-5 melanoma
COLO 205 colon = tested on: COLO 205 colon
A498 renal = tested on: A498 renal
NCI-H460 lung = tested on: NCI-H460 lung
SK-OV-3 ovarian = tested on: SK-OV-3 ovarian
HT29 colon = tested on: HT29 colon
MDA-N = tested on: MDA-N
UACC-62 melanoma = tested on: UACC-62 melanoma
SN12C renal = tested on: SN12C renal
A549 NSCLC = tested on: A549 NSCLC
CCRF-CEM leukemia = tested on: CCRF-CEM leukemia
LOX IMVI melanoma = tested on: LOX IMVI melanoma
MDA-MB-435 = tested on: MDA-MB-435
PC-3 prostate = tested on: PC-3 prostate
SNB-19 CNS = tested on: SNB-19 CNS
HS 578T breast = tested on: HS 578T breast
CAKI-1 renal = tested on: CAKI-1 renal
U251 CNS = tested on: U251 CNS
RXF 393 renal = tested on: RXF 393 renal
DU-145 prostate = tested on: DU-145 prostate
SF-539 CNS = tested on: SF-539 CNS
T-47D breast = tested on: T-47D breast
SNB-75 CNS = tested on: SNB-75 CNS
786-0 renal = tested on: 786-0 renal
SF-295 CNS = tested on: SF-295 CNS
M14 melanoma = tested on: M14 melanoma
HCC-2998 colon = tested on: HCC-2998 colon
EKVX NSCLC = tested on: EKVX NSCLC
NCI-H23 lung = tested on: NCI-H23 lung
UACC-257 melanoma = tested on: UACC-257 melanoma
MCF7 breast = tested on: MCF7 breast
OVCAR-8 ovarian = tested on: OVCAR-8 ovarian
HL-60(TB) leukemia = tested on: HL-60(TB) leukemia
HOP-92 NSCLC = tested on: HOP-92 NSCLC
HOP-62 NSCLC = tested on: HOP-62 NSCLC
MDA-MB-231 breast = tested on: MDA-MB-231 breast
SR leukemia = tested on: SR leukemia
ACHN renal = tested on: ACHN renal
RPMI-8226 leukemia = tested on: RPMI-8226 leukemia
MOLT-4 leukemia = tested on: MOLT-4 leukemia
HCT-15 colon = tested on: HCT-15 colon
HCT-116 colon = tested on: HCT-116 colon
NCI-H522 lung = tested on: NCI-H522 lung
NCI/ADR-RES ovarian = tested on: NCI/ADR-RES ovarian
SW-620 colon = tested on: SW-620 colon
IGROV1 ovarian = tested on: IGROV1 ovarian
KM12 colon = tested on: KM12 colon
UO-31 renal = tested on: UO-31 renal
OVCAR-4 ovarian = tested on: OVCAR-4 ovarian
TK-10 renal = tested on: TK-10 renal
SF-268 CNS = tested on: SF-268 CNS
OVCAR-5 ovarian = tested on: OVCAR-5 ovarian
OVCAR-3 ovarian = tested on: OVCAR-3 ovarian
MALME-3M melanoma = tested on: MALME-3M melanoma
K-562 leukemia = tested on: K-562 leukemia
SK-MEL-2 melanoma = tested on: SK-MEL-2 melanoma
NCI-H226 lung = tested on: NCI-H226 lung
BT-549 breast = tested on: BT-549 breast

Q: For `C=CC(C)(C)/C(=C\CO[Si](C(C)C)(C(C)C)C(C)C)C(=O)N(C)c1ccccc1I`, which TGI (SK-MEL-28 melanoma) is on record?
A: 29.4 µM

Q: And the TGI (SK-MEL-5 melanoma)?
A: 32.1 µM

Q: And the TGI (COLO 205 colon)?
A: 31.5 µM

Q: And the TGI (A498 renal)?
A: 46 µM

Q: What about the TGI (NCI-H460 lung) of the same molecule?
A: 28.1 µM

Q: What about the TGI (SK-OV-3 ovarian) of the same molecule?
A: 33.1 µM

Q: And the TGI (HT29 colon)?
A: 27.1 µM

Q: And the TGI (MDA-N)?
A: 33.6 µM

Q: What about the TGI (UACC-62 melanoma) of the same molecule?
A: 28.7 µM

Q: What about the TGI (SN12C renal) of the same molecule?
A: 29.7 µM

Q: And the TGI (A549 NSCLC)?
A: 23.9 µM

Q: What about the TGI (CCRF-CEM leukemia) of the same molecule?
A: 22.6 µM

Q: What about the TGI (LOX IMVI melanoma) of the same molecule?
A: 27.4 µM

Q: And the TGI (MDA-MB-435)?
A: 73.9 µM

Q: And the TGI (PC-3 prostate)?
A: 12.6 µM

Q: And the TGI (SNB-19 CNS)?
A: 28.1 µM

Q: And the TGI (HS 578T breast)?
A: 27.1 µM

Q: What about the TGI (CAKI-1 renal) of the same molecule?
A: 44 µM

Q: And the TGI (U251 CNS)?
A: 25 µM

Q: And the TGI (RXF 393 renal)?
A: 24.5 µM

Q: And the TGI (DU-145 prostate)?
A: 29.4 µM

Q: What about the TGI (SF-539 CNS) of the same molecule?
A: 33 µM

Q: What about the TGI (T-47D breast) of the same molecule?
A: 25.3 µM

Q: And the TGI (SNB-75 CNS)?
A: 31.7 µM

Q: And the TGI (786-0 renal)?
A: 27.6 µM

Q: What about the TGI (SF-295 CNS) of the same molecule?
A: 28.8 µM

Q: What about the TGI (M14 melanoma) of the same molecule?
A: 33.6 µM

Q: What about the TGI (HCC-2998 colon) of the same molecule?
A: 26 µM

Q: And the TGI (EKVX NSCLC)?
A: 32.1 µM

Q: What about the TGI (NCI-H23 lung) of the same molecule?
A: 23.6 µM

Q: What about the TGI (UACC-257 melanoma) of the same molecule?
A: 28.7 µM

Q: And the TGI (MCF7 breast)?
A: 26.1 µM

Q: What about the TGI (OVCAR-8 ovarian) of the same molecule?
A: 28 µM

Q: And the TGI (HL-60(TB) leukemia)?
A: 11.4 µM

Q: And the TGI (HOP-92 NSCLC)?
A: 22.2 µM

Q: What about the TGI (HOP-62 NSCLC) of the same molecule?
A: 35.8 µM

Q: And the TGI (MDA-MB-231 breast)?
A: 28.9 µM

Q: And the TGI (SR leukemia)?
A: 27.7 µM

Q: And the TGI (ACHN renal)?
A: 25.8 µM

Q: What about the TGI (RPMI-8226 leukemia) of the same molecule?
A: 8.54 µM

Q: What about the TGI (MOLT-4 leukemia) of the same molecule?
A: 25.2 µM

Q: And the TGI (HCT-15 colon)?
A: 30.8 µM

Q: What about the TGI (HCT-116 colon) of the same molecule?
A: 17 µM

Q: What about the TGI (NCI-H522 lung) of the same molecule?
A: 19 µM

Q: What about the TGI (NCI/ADR-RES ovarian) of the same molecule?
A: 37.6 µM

Q: And the TGI (SW-620 colon)?
A: 26.1 µM

Q: And the TGI (IGROV1 ovarian)?
A: 30.3 µM

Q: And the TGI (KM12 colon)?
A: > 100 µM

Q: What about the TGI (UO-31 renal) of the same molecule?
A: 25.9 µM

Q: What about the TGI (OVCAR-4 ovarian) of the same molecule?
A: 68.1 µM

Q: And the TGI (TK-10 renal)?
A: 26.2 µM

Q: And the TGI (SF-268 CNS)?
A: 24.5 µM

Q: What about the TGI (OVCAR-5 ovarian) of the same molecule?
A: 27.5 µM

Q: What about the TGI (OVCAR-3 ovarian) of the same molecule?
A: 26.2 µM

Q: What does the source list for `CN(C)CCN=c1nc2c(c(N)n1-c1ccccc1)c(=S)n(-c1ccccc1)c(=S)n2-c1ccccc1`?
A: GI50 (SK-MEL-28 melanoma): 0.867 µM; TGI (SK-MEL-28 melanoma): 2.33 µM; GI50 (SK-MEL-5 melanoma): 1.49 µM; TGI (SK-MEL-5 melanoma): 2.93 µM; GI50 (COLO 205 colon): 1.52 µM; TGI (COLO 205 colon): 3.32 µM; GI50 (A498 renal): 1.24 µM; TGI (A498 renal): 4.08 µM; GI50 (NCI-H460 lung): 2.33 µM; TGI (NCI-H460 lung): 6.29 µM; GI50 (SK-OV-3 ovarian): 6.96 µM; TGI (SK-OV-3 ovarian): 20.9 µM; GI50 (HT29 colon): 1.48 µM; TGI (HT29 colon): 3.82 µM; GI50 (UACC-62 melanoma): 1.78 µM; TGI (UACC-62 melanoma): 3.41 µM; GI50 (MALME-3M melanoma): 2.04 µM; TGI (MALME-3M melanoma): 3.93 µM; GI50 (SN12C renal): 6.21 µM; TGI (SN12C renal): 20.5 µM; GI50 (A549 NSCLC): 4.86 µM; TGI (A549 NSCLC): 19.8 µM; GI50 (CCRF-CEM leukemia): 4.68 µM; GI50 (LOX IMVI melanoma): 1.38 µM; TGI (LOX IMVI melanoma): 2.71 µM; GI50 (MDA-MB-435): 1.75 µM; TGI (MDA-MB-435): 3.9 µM; GI50 (PC-3 prostate): 4.58 µM; TGI (PC-3 prostate): 27.7 µM; GI50 (SNB-19 CNS): 3.86 µM; TGI (SNB-19 CNS): 16.7 µM; GI50 (HS 578T breast): 1.98 µM; TGI (HS 578T breast): 9.51 µM; GI50 (CAKI-1 renal): 2.16 µM; TGI (CAKI-1 renal): 14.1 µM; GI50 (U251 CNS): 1.4 µM; TGI (U251 CNS): 3.19 µM; GI50 (RXF 393 renal): 2.62 µM; TGI (RXF 393 renal): 7.8 µM; GI50 (DU-145 prostate): 4.91 µM; TGI (DU-145 prostate): 17.7 µM; GI50 (SF-539 CNS): 1.68 µM; TGI (SF-539 CNS): 3.29 µM; GI50 (T-47D breast): 1.88 µM; TGI (T-47D breast): 4.34 µM; GI50 (SNB-75 CNS): 2.3 µM; TGI (SNB-75 CNS): 7.27 µM; GI50 (786-0 renal): 1.33 µM; TGI (786-0 renal): 3.93 µM; GI50 (SF-295 CNS): 2.31 µM; TGI (SF-295 CNS): 6.37 µM; GI50 (K-562 leukemia): 3.6 µM; GI50 (M14 melanoma): 1.69 µM; TGI (M14 melanoma): 3.81 µM; GI50 (HCC-2998 colon): 2.05 µM; TGI (HCC-2998 colon): 5.33 µM; GI50 (EKVX NSCLC): 11 µM; TGI (EKVX NSCLC): 27.2 µM; GI50 (SK-MEL-2 melanoma): 1.73 µM; TGI (SK-MEL-2 melanoma): 3.4 µM; GI50 (NCI-H23 lung): 13.2 µM; TGI (NCI-H23 lung): 31.9 µM; GI50 (UACC-257 melanoma): 1.91 µM; TGI (UACC-257 melanoma): 3.75 µM; GI50 (MCF7 breast): 1.9 µM; TGI (MCF7 breast): 7.39 µM; GI50 (OVCAR-8 ovarian): 4.76 µM; TGI (OVCAR-8 ovarian): 17.6 µM; GI50 (HL-60(TB) leukemia): 1.52 µM; TGI (HL-60(TB) leukemia): 3.3 µM; GI50 (HOP-92 NSCLC): 1.62 µM; TGI (HOP-92 NSCLC): 12.6 µM; GI50 (HOP-62 NSCLC): 2.73 µM; TGI (HOP-62 NSCLC): 10.8 µM; GI50 (MDA-MB-231 breast): 1.16 µM; TGI (MDA-MB-231 breast): 4.05 µM; GI50 (SR leukemia): 1.36 µM; TGI (SR leukemia): 3.34 µM; GI50 (NCI-H226 lung): 13 µM; TGI (NCI-H226 lung): 27.6 µM; GI50 (ACHN renal): 2.89 µM; TGI (ACHN renal): 9.71 µM; GI50 (RPMI-8226 leukemia): 0.587 µM; GI50 (MOLT-4 leukemia): 2.79 µM; TGI (MOLT-4 leukemia): > 21.6 µM; GI50 (HCT-15 colon): 1.17 µM; TGI (HCT-15 colon): 3.73 µM; GI50 (HCT-116 colon): 2.24 µM; TGI (HCT-116 colon): 9.38 µM; GI50 (NCI-H522 lung): 2.39 µM; TGI (NCI-H522 lung): 6.82 µM; GI50 (NCI/ADR-RES ovarian): 10.4 µM; TGI (NCI/ADR-RES ovarian): 26.7 µM; GI50 (SW-620 colon): 1.93 µM; TGI (SW-620 colon): 4.87 µM; GI50 (IGROV1 ovarian): 8.09 µM; TGI (IGROV1 ovarian): 23 µM; GI50 (KM12 colon): 3.8 µM; TGI (KM12 colon): 14.2 µM; GI50 (UO-31 renal): 1.48 µM; TGI (UO-31 renal): 3.83 µM; GI50 (OVCAR-4 ovarian): 2.98 µM; TGI (OVCAR-4 ovarian): 9.01 µM; GI50 (TK-10 renal): 2.36 µM; TGI (TK-10 renal): 10.1 µM; GI50 (SF-268 CNS): 3.34 µM; TGI (SF-268 CNS): 15.1 µM; GI50 (OVCAR-5 ovarian): 9.95 µM; TGI (OVCAR-5 ovarian): 25.5 µM; GI50 (OVCAR-3 ovarian): 2.89 µM; TGI (OVCAR-3 ovarian): 11.6 µM; GI50 (BT-549 breast): 3.21 µM; TGI (BT-549 breast): 13.3 µM
